# According to patent publication US5210193A, “Piperazine derivatives” (American Cyanamid Company, priority 1990, dated 1993):
# Experiments:
# Assay in all cases: in vitro antibacterial MIC, agar plate dilution
# Assay type in all cases: cell-based
# [1] = test system: Staphylococcus aureus ATTC 29213; conditions: Staphylococcus aureus, ATTC29213, 18 h, 35° C., read-out: MIC
# Procedure, shortened: (§1)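 Read-out is visible growth inhibition on Mueller-Hinton agar dilution plates incubated 18 hours at 35° C after inoculation of ~10^4 CFU (Steers device), with MIC reported in mcg/ml.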
# [2] = test system: Klebsiella pneumoniae MOR 84-4; conditions: Klebsiella pneumoniae, MOR844, 18 h, 35° C., read-out: MIC
# Procedure, shortened: as §1
# [3] = test system: Acinetobacter calcoaceticus MOR 84-43; conditions: MOR8443, 18 hours, 35° C., read-out: MIC
# Procedure, shortened: as §1
# [4] = test system: Streptococcus faecalis VGH 84-65; conditions: Enterococcus faecalis, VGH8465, 18 h, 35° C., read-out: MIC
# Procedure, shortened: as §1
# [5] = test system: Pseudomonas aeruginosa LL-1244; conditions: Pseudomonas aeruginosa, LL1244, 18 h, 35° C., read-out: MIC
# Procedure, shortened: as §1
# [6] = test system: Staphylococcus aureus CMC 83-128; conditions: CMC83128, 18 hours, 35° C., read-out: MIC
# Procedure, shortened: as §1
# [7] = test system: Morganella morganii VGH 84-11; conditions: VGH8411, 18 hours, 35° C., read-out: MIC
# Procedure, shortened: as §1
# [8] = test system: Pseudomonas aeruginosa VGH 84-4; conditions: Pseudomonas aeruginosa, VGH844, 18 h, 35° C., read-out: MIC
# Procedure, shortened: as §1
# [9] = test system: Escherichia coli PRNT 311; conditions: PRNT311, 18 hours, 35° C., read-out: MIC
# Procedure, shortened: as §1
# [10] = test system: Escherichia coli ATCC 25922; conditions: Escherichia coli, ATCC25922, 18 h, 35° C., read-out: MIC
# Procedure, shortened: as §1
# [11] = test system: Enterobacter cloacae VGH 84-37; conditions: Enterobacter cloacae, VGH8437, 18 h, 35° C., read-out: MIC
# Procedure, shortened: as §1
# [12] = test system: Morganella morganii CMC 84-37; conditions: Morganella morganii, CMC8437, 18 h, 35° C., read-out: MIC
# Procedure, shortened: as §1
# [13] = test system: Streptococcus faecalis ATTC 29212; conditions: Enterococcus faecalis, ATTC29212, 18 hours, 35° C., read-out: MIC
# Procedure, shortened: as §1
# [14] = test system: Escherichia coli CMC 84-16; conditions: Escherichia coli, CMC8416, 18 h, 35° C., read-out: MIC
# Procedure, shortened: as §1
# [15] = test system: Klebsiella pneumoniae AD; conditions: Klebsiella pneumoniae, 18 h, 35° C., read-out: MIC
# Procedure, shortened: as §1
# [16] = test system: Staphylococcus aureus ATCC 25913; conditions: ATCC25913, 18 hours, 35° C.
# Procedure, shortened: as §1
# [17] = test system: Staphylococcus Spp saprophiticus VGH 84-50; conditions: 18 hours, 35° C., read-out: MIC
# Procedure, shortened: as §1
# [18] = test system: Staphylococcus aureus VGH 84-45; conditions: Staphylococcus aureus, VGH8445, 18 h, 35° C., read-out: MIC
# Procedure, shortened: as §1
# [19] = test system: Staphylococcus epidermidis CMC 83-135; conditions: CMC83135, 18 hours, 35° C., read-out: MIC
# Procedure, shortened: as §1
# [20] = test system: Serratia marcescens K 84-18; conditions: Serratia marcescens, K8418, 18 h, 35° C., read-out: MIC
# Procedure, shortened: as §1
# [21] = test system: Enterobacter cloacae K 84-10; conditions: Enterobacter cloacae, K8410, 18 h, 35° C., read-out: MIC
# Procedure, shortened: as §1
# [22] = test system: Escherichia coli NAR 311; conditions: NAR311, 18 hours, 35° C., read-out: MIC
# Procedure, shortened: as §1
# [23] = test system: Staphylococcus epidermidis VGH 84-40; conditions: VGH8440, 18 hours, 35° C., read-out: MIC
# Procedure, shortened: as §1
# [24] = test system: Klebsiella oxytoca MOR 84-28; conditions: MOR8428, 18 hours, 35° C.
# Procedure, shortened: as §1
# [25] = test system: Serratia marcescens F 0-35; conditions: Serratia marcescens, F035, 18 h, 35° C., read-out: MIC
# Procedure, shortened: as §1
# [26] = test system: Staphylococcus epidermidis IO 83-58; conditions: IO8358, 18 hours, 35° C., read-out: MIC
# Procedure, shortened: as §1
# [27] = test system: Staphylococcus aureus Smith; conditions: Staphylococcus aureus, 18 h, 35° C., read-out: MIC
# Procedure, shortened: as §1
# [28] = test system: Staphylococcus aureus VGH 84-46; conditions: Staphylococcus aureus, VGH8446, 18 h, 35° C., read-out: MIC
# Procedure, shortened: as §1
# [29] = test system: Enterobacter aerogenes VGH 84-36; conditions: Klebsiella aerogenes, VGH8436, 18 hours, 35° C., read-out: MIC
# Procedure, shortened: as §1
# [30] = test system: Escherichia coli CMC 84-11; conditions: Escherichia coli, CMC8411, 18 h, 35° C., read-out: MIC
# Procedure, shortened: as §1
# [31] = test system: Proteus rettgeri CMC 84-41; conditions: Providencia rettgeri, CMC8441, 18 h, 35° C., read-out: MIC
# Procedure, shortened: as §1
# [32] = test system: Staphylococcus aureus CMC 83-127; conditions: Staphylococcus aureus, CMC83127, 18 h, 35° C., read-out: MIC
# Procedure, shortened: as §1
smiles,measurement,setting,value
"CCn1cc(C(=O)O)c(=O)c2cc(F)c(N3CCNC(c4ccco4)C3)cc21 (stereo not drawn) [Example 28, 1-Ethyl-6-fluoro-7-[3-(2-furanyl)-1-piperazinyl]-1,4-dihydro-4-oxo-3-quinolinecarboxylic acid]",MIC,[1],0.25 µg/mL
same,MIC,[2],0.25 µg/mL
same,MIC,[3],2 µg/mL
same,MIC,[4],2 µg/mL
same,MIC,[5],32 µg/mL
same,MIC,[6],≤ 0.12 µg/mL
same,MIC,[7],0.25 µg/mL
same,MIC,[8],4 µg/mL
same,MIC,[9],0.5 µg/mL
same,MIC,[10],≤ 0.12 µg/mL
same,MIC,[11],≤ 0.12 µg/mL
same,MIC,[12],0.25 µg/mL
same,MIC,[13],2 µg/mL
same,MIC,[14],≤ 0.12 µg/mL
same,MIC,[15],≤ 0.12 µg/mL
same,MIC,[16],≤ 0.12 µg/mL
same,MIC,[17],1 µg/mL
same,MIC,[18],≤ 0.06 µg/mL
same,MIC,[19],≤ 0.12 µg/mL
same,MIC,[20],1 µg/mL
same,MIC,[21],0.25 µg/mL
same,MIC,[22],4 µg/mL
same,MIC,[23],≤ 0.12 µg/mL
same,MIC,[24],0.5 µg/mL
same,MIC,[25],1 µg/mL
same,MIC,[26],0.25 µg/mL
same,MIC,[27],≤ 0.12 µg/mL
same,MIC,[28],≤ 0.12 µg/mL
same,MIC,[29],0.5 µg/mL
same,MIC,[30],≤ 0.12 µg/mL
same,MIC,[31],0.25 µg/mL
same,MIC,[32],≤ 0.06 µg/mL
CCn1cc(C(=O)O)c(=O)c2cc(F)c(N3CCNC(c4ccsc4)C3)cc21 (stereo not drawn) [Example 30],MIC,[1],0.5 µg/mL
same,MIC,[2],0.25 µg/mL
same,MIC,[3],4 µg/mL
same,MIC,[4],4 µg/mL
same,MIC,[5],32 µg/mL
same,MIC,[6],0.5 µg/mL
same,MIC,[7],0.12 µg/mL
same,MIC,[8],4 µg/mL
same,MIC,[9],0.5 µg/mL
same,MIC,[10],0.12 µg/mL
same,MIC,[11],0.12 µg/mL
same,MIC,[12],0.25 µg/mL
same,MIC,[13],4 µg/mL
same,MIC,[14],0.25 µg/mL
same,MIC,[15],0.12 µg/mL
same,MIC,[16],0.25 µg/mL
same,MIC,[17],2 µg/mL
same,MIC,[18],0.25 µg/mL
same,MIC,[19],0.25 µg/mL
same,MIC,[20],0.5 µg/mL
same,MIC,[21],0.5 µg/mL
same,MIC,[22],4 µg/mL
same,MIC,[23],0.25 µg/mL
same,MIC,[24],0.5 µg/mL
same,MIC,[25],1 µg/mL
same,MIC,[26],0.5 µg/mL
same,MIC,[27],0.12 µg/mL
same,MIC,[28],0.25 µg/mL
same,MIC,[29],0.5 µg/mL
same,MIC,[30],0.12 µg/mL
same,MIC,[31],0.25 µg/mL
same,MIC,[32],0.12 µg/mL
"CCn1cc(C(=O)O)c(=O)c2cc(F)c(N3CCN(C)C(c4cc5cc(Cl)ccc5o4)C3)cc21 (stereo not drawn) [Example 55, 7-[3-(5-Chloro-2-benzofuranyl)-4-methyl-1-piperazinyl]-1-ethyl-6-fluoro-1,4-dihydro-4-oxo-3-quinolinecarboxylic acid]",MIC,[1],64 µg/mL
same,MIC,[2],> 256 µg/mL
same,MIC,[3],> 256 µg/mL
same,MIC,[4],> 256 µg/mL
same,MIC,[5],> 256 µg/mL
same,MIC,[6],16 µg/mL
same,MIC,[7],> 256 µg/mL
same,MIC,[8],> 256 µg/mL
same,MIC,[9],> 256 µg/mL
same,MIC,[10],> 256 µg/mL
same,MIC,[11],> 256 µg/mL
same,MIC,[12],> 256 µg/mL
same,MIC,[13],> 256 µg/mL
same,MIC,[14],> 256 µg/mL
same,MIC,[15],> 256 µg/mL
same,MIC,[17],> 256 µg/mL
same,MIC,[18],16 µg/mL
same,MIC,[19],64 µg/mL
same,MIC,[20],> 256 µg/mL
same,MIC,[21],> 256 µg/mL
same,MIC,[22],> 256 µg/mL
same,MIC,[23],32 µg/mL
same,MIC,[24],> 256 µg/mL
same,MIC,[25],> 256 µg/mL
same,MIC,[26],128 µg/mL
same,MIC,[27],16 µg/mL
same,MIC,[28],32 µg/mL
same,MIC,[29],> 256 µg/mL
same,MIC,[30],> 256 µg/mL
same,MIC,[31],> 256 µg/mL
same,MIC,[32],8 µg/mL
"CCn1cc(C(=O)O)c(=O)c2c(F)c(F)c(N3CCN(C)CC3)c(F)c21 [Example 85, 1-Ethyl-5,6,8-trifluoro-1,4-dihydro-7-(4-methyl-1-piperazinyl) -4-oxo-3-quinolinecarboxylic acid]",MIC,[1],2 µg/mL
same,MIC,[2],0.5 µg/mL
same,MIC,[3],1 µg/mL
same,MIC,[4],16 µg/mL
same,MIC,[5],16 µg/mL
same,MIC,[6],2 µg/mL
same,MIC,[7],0.12 µg/mL
same,MIC,[8],4 µg/mL
same,MIC,[9],0.12 µg/mL
same,MIC,[10],0.12 µg/mL
same,MIC,[11],0.12 µg/mL
same,MIC,[12],0.12 µg/mL
same,MIC,[13],8 µg/mL
same,MIC,[14],0.06 µg/mL
same,MIC,[15],0.25 µg/mL
same,MIC,[17],8 µg/mL
same,MIC,[18],1 µg/mL
same,MIC,[19],2 µg/mL
same,MIC,[20],0.5 µg/mL
same,MIC,[21],0.12 µg/mL
same,MIC,[22],4 µg/mL
same,MIC,[23],1 µg/mL
same,MIC,[24],1 µg/mL
same,MIC,[25],0.5 µg/mL
same,MIC,[26],1 µg/mL
same,MIC,[27],1 µg/mL
same,MIC,[28],1 µg/mL
same,MIC,[29],0.5 µg/mL
same,MIC,[30],0.12 µg/mL
same,MIC,[31],0.5 µg/mL
same,MIC,[32],0.5 µg/mL
